Results on 5 molecules are retold here after paper PMC12471853, “New Marine Actinobacteria Strain, Micromonospora sp. SH-82: Characterization, Specialized Metabolites and Biological Activities” (Microorganisms, 2025).

Read-outs that look alike come from different tables or passages of the source.

A short description of data set [1]: Cytotoxic activity, CellTiter Glo luminescent cell viability assay, 72 h. The format is cell-based. The settings on record: human, read-out: Percentage of Cell Viability. The protocol: (§1) Biological activity assays were conducted on microbial extract from Micromonospora sp. SH-82 and on isolated compounds 1, 2, 3, and 5. The tests focused on antiplasmodial and cytotoxic activity. Detailed protocols for these activity tests can be found in reference. The cytotoxic activity was performed on human colorectal HCT-116 and mammary MDA-MB-231 carcinoma cells. Human HCT-116 colorectal carcinoma cells were grown in Gibco McCoy’s 5A supplemented with 10% fetal calf serum and 1% glutamine. MDA-MB231 breast carcinomas were grown in RPMI 1640 supplemented with 10% fetal calf serum and 1% glutamine. Human hTERT-RPE1 cells were cultured in DMEM/F12 medium containing 10% fetal calf serum and 1% glutamine, enabling their impact on a healthy cell line. Cell lines were maintained at 37 °C in a humidified atmosphere containing 5% CO2. Cell viability was determined via a luminescent assay according to the manufacturer’s instructions (Promega, Madison, WI, USA). Briefly, the cells were seeded in 96-well plates (2.5 × 10^3 cells/well) containing 90 μL of growth medium. After 24 h of culture, the cells were treated with the tested compounds at 10 and 1 μg/mL (extracts) or at 10 and 1 μM (pure compounds) final concentrations. Control cells were treated with the vehicle (DMSO), and no effect was observed from DMSO diluted at 1/1000. After 72 h of incubation, 100 μL of CellTiter Glo Reagent was added for 15 min before recording luminescence with a spectrophotometric plate reader PolarStar Omega (BMG LabTech, Ortenberg, Germany). The percent viability index was evaluated by two independent assays in triplicate.

In the next data set the test system is RPE1 cell line. Kind of data set: Cytotoxicity on non-cancerous cell line, CellTiter Glo luminescent cell viability assay, 72 h. To be noted: RPE1; 10 and 1 µM (compounds) or 10 and 1 µg/mL (extract). It counts as cell-based, human. The protocol:
as §1
(In general: In ATP-based viability assays light output follows the ATP content of the culture.)

Test in data set [2]: as above
The format is cell-based, human. The settings on record: human, hTERT-RPE1 cells (non-cancerous cell line), 72 h, read-out: Percentage of Cell Viability; for viability at 72 h, 1 µM: RPE1, pure compounds at 1 µM; for viability at 72 h, 10 µM: RPE1, pure compounds at 10 µM. On the procedure: as §1

For data set [3], the system named is Plasmodium falciparum 3D7. In words: Antiplasmodial activity, in vitro culture of chloroquine-sensitive strain. The format is cell-based. The protocol:
Biological activity assays were conducted on microbial extract from Micromonospora sp. SH-82 and on isolated compounds 1, 2, 3, and 5. The tests focused on antiplasmodial and cytotoxic activity. Detailed protocols for these activity tests can be found in reference. The antiplasmodial activity was conducted by using in vitro cultures of the chloroquine-sensitive 3D7 strain of Plasmodium falciparum (BEI Resources, Manassas, VA, USA) following the methodology of Trager and Jensen. The assays were performed in three independent experiments (n = 3), each conducted in duplicate. Artemisinin was used as the positive control, while DMSO served as the vehicle and negative control, representing 100% parasite growth. Untreated red blood cells were also included as a blank. The measurements consisted of determining the concentration required to inhibit 50% of parasite growth (IC50), expressed in µg/mL for the crude extract and in µM for the isolated compounds. IC50 values were calculated via simple linear regression.

A short description of data set [4]: Stability check of compound 5 by new NMR and ESI+-HRMS analyses. The format is physicochemical. The settings on record: re-analysis by NMR and ESI+-HRMS prior to biological assays, one year later (Figure S43). On the procedure:
Prior to conducting biological assays, it was necessary to ascertain the stability of compound 5. To this end, new NMR and ESI^+-HRMS analyses were recorded (Figures S38–S43). […] The first one could be identified as the 9-hydroxy derivative of 5 and, thus, to 6,9-hemiacetal-9-hydroxy-10,11-anhydroerythronolide B (5.1) (Figure 2). The second one has a carbonyl in C-9 at δC 208.8 and, therefore, corresponds to the open form of the first one: 8-epi-10,11-anhydroerythronolide B (5.2) (Figure 2).

[5] abbreviates: HCT-116 colorectal carcinoma cells, HCT-116, pure compounds at 1 µM.
The mark [6] stands for this setting: HCT-116 colorectal carcinoma cells, HCT-116, pure compounds at 10 µM.
Setting [7] is: MDA-MB-231 breast carcinoma cells, MDA-MB-231, pure compounds at 1 µM.
[8] abbreviates: MDA-MB-231 breast carcinoma cells, MDA-MB-231, pure compounds at 10 µM.

In general, viability refers to a read-out of living cells in per cent, often relative to untreated cells. One may read the IC50 as the midpoint of a concentration-inhibition curve. Turning to `CCC1OC(=O)C(C)C(OC2CC(C)(OC(C)=O)C(OC(C)=O)C(C)O2)C(C)C(OC2OC(C)CC(N(C)C)C2O)C(C)(OC2CC(N(C)C)C(O)C(C)O2)CC(C)C(=O)C(C)C(O)C1(C)O` (stereo not drawn) [Compound 3, megalomicin C1], the viability at 72 h, 1 µM in data set [1] (setting [5]) was determined as 100 ± 1.66%; in data set [1] (setting [7]), 102 ± 1.74%; in data set [2] it was 104 ± 1.32%. The viability at 72 h, 10 µM in data set [1] (setting [6]) worked out at 97.3 ± 2.22%; in data set [1] (setting [8]) it was 98.6 ± 1.38%; in data set [2] it was 104 ± 1.94%. Further, the “toxicity towards healthy cells (in words)” value in the data set with RPE1 cell line is recorded as “No activity”. Besides, the IC50 was 3.61 µM in data set [3] (3D7, Experiment 1, dose-response curve, Figure 8, read-out: IC50 against Plasmodium falciparum 3D7 (converted)); 9.54 µM in data set [3] (3D7, Experiment 2, dose-response curve, Figure 8, read-out: IC50 against Plasmodium falciparum 3D7 (converted)); 5.96 µM in data set [3] (3D7, Experiment 3, dose-response curve, Figure 8, read-out: IC50 against Plasmodium falciparum 3D7 (converted)); 6.31 µM in data set [3] (3D7, IC50 obtained from the average dose-response curve, Figure 8, read-out: IC50 (mean curve)); 6.37 µM in data set [3] (3D7, arithmetic mean ± SD of three independent assays, read-out: IC50 against Plasmodium falciparum 3D7 (converted)); 6.12 ± 2.87 µg/mL in data set [3] (3D7, mean ± SD of three independent assays, read-out: IC50 against Plasmodium falciparum 3D7 (converted)).

As for `C[C@@H]1CC[C@H]2[C@@H](C)C(=O)O[C@@H]3O[C@@]4(C)CC[C@@H]1[C@]32OO4` [Artemisinin, reference compound], the IC50 in data set [3] (3D7, positive control, read-out: IC50 against Plasmodium falciparum 3D7 (converted)) was 0.00636 µg/mL.

Regarding `CC[C@H]1OC(=O)[C@H](C)[C@@H](O)[C@H](C)[C@@H](O)[C@](C)(O)C[C@@H](C)C(=O)[C@H](C)[C@@H](O)[C@H]1C` [Compound 1, Erythronolide B], the viability at 72 h, 1 µM came out at 101 ± 0.5% in data set [1] (setting [5]), 107 ± 0.86% in data set [1] (setting [7]) and 102 ± 1.58% in data set [2]. In addition, the viability at 72 h, 10 µM in data set [1] (setting [6]) amounted to 104 ± 1.16%; in data set [1] (setting [8]), 100 ± 0.76%; in data set [2] it was 97.3 ± 1.03%. For the same molecule, the “toxicity towards healthy cells (in words)” value in the data set with RPE1 cell line is “No activity”.

For the molecule `CC[C@H]1OC(=O)[C@H](C)[C@@H](O)[C@H](C)[C@@H](O)[C@@H](C)C[C@@H](C)C(=O)[C@H](C)[C@@H](O)[C@H]1C` [Compound 2, 6-desoxyerythronolide B], the viability at 72 h, 1 µM in data set [1] (setting [5]) was 101 ± 1.62%; in data set [1] (setting [7]) it was 105 ± 1.56%; in data set [2] it was 99.1 ± 1.4%. Further, the viability at 72 h, 10 µM worked out at 103 ± 3.56% in data set [1] (setting [6]), 101 ± 1.13% in data set [1] (setting [8]) and 95.3 ± 0.96% in data set [2]. Besides, the “toxicity towards healthy cells (in words)” value with RPE1 cell line is “No activity”.

As to `CCC1OC(=O)C(C)C(O)C(C)C(O)C2(C)CC(C)C(OC)(O2)C(C)=CC1C` (stereo not drawn) [Compound 5, 6,9-hemiacetal-9-O-methyl-10,11-anhydroerythronolide B], the viability at 72 h, 1 µM stood at 99.1 ± 0.32% in data set [1] (setting [5]), 100 ± 1.74% in data set [1] (setting [7]) and 103 ± 1.52% in data set [2]. For the same molecule, the viability at 72 h, 10 µM in data set [1] (setting [6]) came out at 99.7 ± 0.59%; in data set [1] (setting [8]), 99 ± 3.28%; in data set [2], 103 ± 1.77%. Also, in the data set with RPE1 cell line, the “toxicity towards healthy cells (in words)” value is “No activity”. Further, the “stability of the compound (in words)” value in data set [4] was “a mixture of two compounds is observed”.
